“Also recorded” adds a separate entry of the source. Strand notation (5' to 3'): a small letter for the sugar, then the base; units joined by * are phosphorothioate-linked, units joined directly phosphodiester-linked; [ ] holds rarer units or linkages, { } end groups; capitals alone tell only the bases. [5IU] = 5-iodo-2'-deoxyuridine (publication's JU); d = 2'-deoxy (DNA)
Tests used:
[1] = test system: PBMC; assay: B-cell proliferation in CFSE-labeled human PBMC; assay type: cell-based; conditions: CFSE-labeled PBMC from three donors, 5 days, CD19 staining
Procedure: Next the activity of modified P-class class ODN (SEQ ID NO:58, 60-62, FIG. 29a) (SEQ ID NO:64 and 67, FIG. 29b) was compared to that of an unmodified B-class ODN (SEQ ID NO:55), an unmodified C-class ODN (SEQ ID NO:54), a negative control ODN (SEQ ID NO:53), an unmodified P-class ODN (SEQ ID NO:56), LPS, R-848, SEB, and a poly[I]:[C] ODN. CFSE-labeled PBMC from three donors were incubated with the ODN for 5 days and then stained with a CD19 antibody. The percentage of B cells with reduced CFSE staining was determined.

[2] = test system: BALB/c mice; assay: In vivo murine IFN-alpha induction after SC injection (ELISA); design: species or system mouse; conditions: bled at 3 hr post injection
Procedure: (§1) Female BALB/c mice (6-8 weeks of age) were purchased from Charles River Canada (Quebec, Canada) and housed in micro-isolators in the Animal Care Facility at Coley Pharmaceutical Group Canada. All studies were conducted in accordance with the Animal Care Committee of Coley Canada under the guidance of the Canadian Council on Animal Care. All animals were naïve to CpG ODNs.
In order to determine the effect of the modified P-class ODN in vivo, BALB/c mice (5 per group) were injected SC with differing doses of ODN. Animals were bled at 3 hr post injection and plasma tested for IFN-alpha by ELISA. The activity of modified P-class ODN (SEQ ID NO:58, 60-62, 64, and 67) was compared to that of a B-class negative control (SEQ ID NO:55) and a negative control (SEQ ID NO:26).

[3] = test system: BALB/c mouse splenocytes; assay: B cell proliferation in CFSE-stained mouse splenocytes (FACS); assay type: cell-based; conditions: 0.001-10 μg/ml ODN, 72 hours, CD19 FACS
Procedure: Caboxy-florescein diacetate, succimidyl ester (CFSE) (Invitrogen, Eugene, Oreg., USA) stained BALB/c mouse splenocytes (4×10^5/well) were incubated with different concentrations of ODN in a humidified 5% CO2 incubator at 37° C. for […]. Cells were then stained with PE conjugated anti-CD19 antibody (BD Pharmingen, San Diego, Calif., USA) for CD19 and B-cell proliferation was determined by FACS followed by analysis by ModFit Software V3.0 (Verity Software House Inc., Topsham, Me., USA).
ODN were then tested their ability to induce B cell proliferation in splenocytes. CFSE-stained BALB/c mouse splenocytes (4×10^5/well) were incubated with 0.001, 0.01, 0.1, 0.3, 1, 3 or 10 μg/ml of the indicated ODN (FIG. 14). At 72 hours post-incubation, cells were stained for cell surface marker CD19 and B-cell proliferation was determined by FACS followed by analysis by ModFit Software. […] The increase was most pronounced even at lower ODN concentration.

[4] = test system: BALB/c mouse splenocytes; assay: Cytokine ELISA of mouse splenocyte culture supernatants; assay type: cell-based; conditions: BALB/c splenocyte supernatants at 6 hour (TNF-alpha) or 24 hours (IL-6, IL-10, IL-12)
From the text: Naïve BALB/c mouse splenocytes (from pools of 3-5 animals) were used for in vitro assays. Animals were anaesthetized with isoflurane and euthanized by cervical dislocation. Spleens were removed under aseptic conditions and placed in PBS+0.2% bovine serum albumin (Sigma Chemical Company). Spleens were then homogenized and splenocytes were re-suspended in RPMI 1640 (Life Technologies, Grand Island, N.Y.) tissue culture medium supplemented with 2% normal mouse serum (Cedarlane Laboratories, Ontario, Canada), penicillin-streptomycin solution (final concentration of 1000 U/ml and 1 mg/ml respectively; Sigma Chemical Company), and 5×10−5 M b-mercaptoethanol (Sigma Chemical Company).
In order to determine the efficacy of the modified ODN of the invention […], ODN with lipophilic T analogs were tested in isolated mouse splenocytes. BALB/c mouse splenocytes were isolated and incubated with modified B class (SEQ ID NO:13), unmodified B class (SEQ ID NO:37), and a non-CpG ODN (SEQ ID NO:26) (Table 5). Culture supernatants were collected at 6 hour (TNF-alpha) or 24 hours (IL-6, IL-10, IL-12) and cytokine concentration was measured by ELISA.

[5] = molecular target: T1, human TLR9 (Homo sapiens, UniProt Q9NR96); assay: TLR9 luciferase assay (NF-κB reporter) in hTLR9-LUC-293 cells; assay type: cell-based; conditions: 16 h, stated in words relative to the comparator ODN
T1 construct: expressed in transfected cells
T1 sequence (Q9NR96 26-1032): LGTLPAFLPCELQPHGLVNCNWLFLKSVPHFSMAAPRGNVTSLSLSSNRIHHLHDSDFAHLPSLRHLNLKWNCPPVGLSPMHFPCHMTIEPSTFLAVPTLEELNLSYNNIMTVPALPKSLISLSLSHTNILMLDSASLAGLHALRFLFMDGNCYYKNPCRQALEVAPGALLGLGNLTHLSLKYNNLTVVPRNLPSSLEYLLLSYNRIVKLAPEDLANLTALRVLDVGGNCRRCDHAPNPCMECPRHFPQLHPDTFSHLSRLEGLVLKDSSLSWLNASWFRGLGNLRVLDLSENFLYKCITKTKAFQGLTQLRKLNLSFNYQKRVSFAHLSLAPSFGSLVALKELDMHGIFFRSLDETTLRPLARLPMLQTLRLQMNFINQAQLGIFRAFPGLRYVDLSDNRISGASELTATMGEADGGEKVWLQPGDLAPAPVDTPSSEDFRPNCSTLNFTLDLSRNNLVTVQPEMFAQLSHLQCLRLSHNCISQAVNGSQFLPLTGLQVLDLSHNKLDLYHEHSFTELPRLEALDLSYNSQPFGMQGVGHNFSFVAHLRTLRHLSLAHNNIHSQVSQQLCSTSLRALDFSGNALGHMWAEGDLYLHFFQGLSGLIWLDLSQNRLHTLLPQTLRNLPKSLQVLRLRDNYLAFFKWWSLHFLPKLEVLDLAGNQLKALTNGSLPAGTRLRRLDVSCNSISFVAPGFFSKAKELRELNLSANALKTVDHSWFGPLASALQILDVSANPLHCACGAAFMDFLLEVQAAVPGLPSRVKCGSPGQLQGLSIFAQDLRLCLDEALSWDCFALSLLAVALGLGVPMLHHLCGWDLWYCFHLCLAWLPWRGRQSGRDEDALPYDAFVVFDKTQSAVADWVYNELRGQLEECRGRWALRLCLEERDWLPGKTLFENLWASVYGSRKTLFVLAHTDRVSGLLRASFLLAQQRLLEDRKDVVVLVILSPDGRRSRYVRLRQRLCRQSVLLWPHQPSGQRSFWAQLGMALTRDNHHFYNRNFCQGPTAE
Procedure: HEK293 cells were transfected by electroporation with vectors expressing the respective human TLR and a 6xNF-κB-luciferase reporter plasmid. Stable transfectants (3×10^4 cells/well) were incubated indicated amounts of ODN for 16 h at 37° C. in a humidified incubator. Each data point was done in triplicate. Cells were lysed and assayed for luciferase gene activity (using the BriteLite kit from Perkin-Elmer, Zaventem, Belgium). Stimulation indices were calculated in reference to reporter gene activity of medium without addition of ODN.

[6] = test system: BALB/c mice; assay: In vivo plasma cytokine production after SC injection (ELISA); design: species or system mouse
Procedure: as §1
To measure the effect of modified ODN in vivo, BALB/c mice (5 per group) were injected subcutaneously (SC) with 10, 50 or 100 μg of SEQ ID NO:13 or 100 μg of SEQ ID NO:37 in a total volume of 100 μl SC. Control group received 100 μl of PBS alone. Animals were bled by cardiac puncture at 1 hour post injection (TNF-alpha) or 3 hours post injection (IP-10). Plasma samples were assayed ELISA for TNF-alpha (FIG. 15a) and IP-10 (FIG. 15b).

Substance: T*C*G*T*C*G*T*T*T*T*G*T*C*G*T*T*T*T*G*T*C*G*T*T [SEQ ID NO:55, reference compound]
- percentage of B cells with reduced CFSE staining [1]: highest percentage of B cells after division
- plasma IFN-alpha induction [2]: did not induce much murine IFN-alpha

Substance: T*G*JU*C-G*T*T*T*T*T*T*T*T*T*T*T*T*T*T*T (DNA dT*dG*d[5IU]*dCdG*dT*dT*dT*dT*dT*dT*dT*dT*dT*dT*dT*dT*dT*dT*dT) [SEQ ID NO:13]
- B-cell proliferation [3]: marked increase in B-cell proliferation
- cytokine concentration (TNF-alpha, IL-6, IL-10, IL-12) [4]: dramatically increased levels of all cytokines tested
- TLR9 stimulation (NF-κB luciferase activity, relative stimulation index) [5]: greater stimulation of TLR9 activity over control; also recorded: more active in the assay than the parent ODN
- plasma TNF-alpha production ([6]; 1 hour post injection): higher
- plasma IP-10 production ([6]; 3 hours post injection): higher
